Measurements as given in patent publication US8658794B2, “8-methyl-1-phenyl-imidazol[1,5-a]pyrazine compounds as Lck inhibitors and uses thereof” (Merck Sharp & Dohme B.V., priority 2010, dated 2014).

biological target: T1, N-terminal His6-tagged recombinant full-length human Lck (Homo sapiens, UniProt P06239); assay: Lck IMAP assay; type: biochemical; conditions: ATP 6 μM (KM,ATP), enzyme pre-incubated with compounds for 60 minutes, values given as bins
T1 construct: N-terminal His6-tagged recombinant full-length human Lck; His6 (N); purchased Millipore
T1 sequence (P06239 whole entry): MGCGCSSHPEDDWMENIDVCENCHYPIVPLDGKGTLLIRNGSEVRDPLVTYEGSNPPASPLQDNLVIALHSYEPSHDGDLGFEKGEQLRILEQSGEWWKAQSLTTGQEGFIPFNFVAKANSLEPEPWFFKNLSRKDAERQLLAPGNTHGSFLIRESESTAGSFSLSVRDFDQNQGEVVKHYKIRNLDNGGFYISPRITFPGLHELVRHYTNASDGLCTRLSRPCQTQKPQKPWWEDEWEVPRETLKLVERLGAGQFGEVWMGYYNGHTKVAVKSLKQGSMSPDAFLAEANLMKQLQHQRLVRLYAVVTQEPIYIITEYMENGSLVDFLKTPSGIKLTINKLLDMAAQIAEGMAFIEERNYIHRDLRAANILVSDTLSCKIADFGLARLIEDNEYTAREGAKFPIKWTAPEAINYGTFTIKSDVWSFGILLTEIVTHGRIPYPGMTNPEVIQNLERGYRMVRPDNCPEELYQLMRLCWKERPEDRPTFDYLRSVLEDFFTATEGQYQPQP
Description: Inhibition of kinase activity can be measured using the Immobilized Metal Assay for Phosphochemicals (IMAP) assay. IMAP is a homogeneous fluorescence polarization (FP) assay based on affinity capture of phosphorylated peptide substrates. IMAP uses fluorescein-labeled peptide substrates that, upon phosphorylation by a protein kinase, bind to so-called IMAP nanoparticles, which are derivatized with trivalent metal complexes. Binding causes a change in the rate of the molecular motion of the peptide, and results in an increase in the FP value observed for the fluorescein label attached to the substrate peptide (Gaudet et al. A homogeneous fluorescence polarization assay adaptable for a range of protein serine/threonine and tyrosine kinases. J. Biomol. Screen (2003) 8, 164-175).
Enzyme used was N-terminal His6-tagged recombinant full-length human Lck from Millipore. Phosphorylation substrate was a fluorescein-labeled peptide (5FAM-KVEKIGEGTYGVV—NH2) derived from p34cdc2 from Molecular Devices. Enzymes, substrate and ATP were diluted in Kinase Reaction buffer (10 mM Tris-HCl, 10 mM MgCl2, 0.01% Tween-20, 0.05% NaN3 pH 7.2, 1 mM DTT (dithiotreitol). The final volume at the kinase reaction step of the assay in the 384-well plate was 20 μl. Final amount of enzyme in the reaction was 0.1 U/ml. Enzyme was pre-incubated with compounds diluted in 1% DMSO (dimethylsulfoxide) for 60 minutes at room temperature in the dark. Subsequently, peptide substrate to a final concentration of 100 nM, and ATP to a final concentration of 6 μM were added and the mix was incubated for 120 minutes at room temperature in the dark. IMAP progressive binding buffer (75% 1× buffer A, 25% 1× buffer B with 1:600 Progressive Binding Reagent; Molecular Devices) was added, followed by an incubation step of 60 minutes at room temperature in the dark. Finally, the FP signal was read on an Envision Multilabel reader (Perkin Elmer).
All biochemical assays were run at KM,ATP of the enzyme using non-saturated conditions, meaning that during the incubation time it was assured that the signal increase was linear with time. For all biochemical assays a reference standard was used on each plate.
Ten point serial dilutions using a √10 dilution factor were used for dose response testing of compounds. Starting concentration was 10^-6M for Lck IMAP assays. Dose-response curves were run as two experiments on duplicate plates (N=1; n=2). All data was normalized to percentage effect based on maximum (Max) and minimum (Min) control values. On every 384 assay plate 16 wells were used as minimum wells (wells with ATP, 0% effect) and 16 wells were used as maximum wells (wells without ATP, 100% effect). 16 wells were used for measuring the background signal, obtained from a kinase reaction containing all constituents except the labeled peptide substrate. Percentage effect was plotted against log dilution concentration of compound to obtain sigmoid dose response curves. pIC50 values were calculated using ActivityBase.

Structure (SMILES)	IC50
COc1cc(-c2nc(N3CCN(C(C)=O)CC3)n3ccnc(C)c23)ccc1NC(=O)c1cc2c(OC)cccc2n1C [Example 33g, N-(4-(3-(4-acetylpiperazin-1-yl)-8-methylimidazo[1,5-a]pyrazin-1-yl)-2-methoxyphenyl)-4-methoxy-1-methyl-1H-indole-2-carboxamide]	10 to 100 nM
COc1cc2cc(C(=O)Nc3ccc(-c4nc([C@H]5CC[C@H](N6CCN(C)CC6)CC5)n5ccnc(C)c45)cc3OC)n(C)c2cn1 [Example 75, 5-Methoxy-N-(2-methoxy-4-(8-methyl-3-((trans)-4-(4-methylpiperazin-1-yl)cyclohexyl)imidazo[1,5-a]pyrazin-1-yl)phenyl)-1-methyl-1H-pyrrolo[2,3-c]pyridine-2-carboxamide]	≤ 10 nM
CCC[C@H](C)OC(=O)Nc1ccc(-c2nc(C3CCC(N4CCN(C)CC4)C3)n3ccnc(C)c23)cc1OC (mixture of isomers) [Example 28, (S)-Pentan-2-yl 2-methoxy-4-(8-methyl-3-(3-(4-methylpiperazin-1-yl)cyclopentyl)imidazo[1,5-a]pyrazin-1-yl)phenylcarbamate]	≤ 10 nM
COc1cc(-c2nc(N3CCC(N4CCOCC4)CC3)n3ccnc(C)c23)ccc1NC(=O)OC(C)C [Example 25, Isopropyl 2-methoxy-4-(8-methyl-3-(4-morpholinopiperidin-1-yl)imidazo[1,5-a]pyrazin-1-yl)phenylcarbamate]	10 to 100 nM
CNC[C@]1(O)CC[C@H](c2nc(-c3ccc(NC(=O)c4cc5c(OC)cccc5n4C)c(OC)c3)c3c(C)nccn32)CC1 [Example 72, N-(4-(3-((trans)-4-hydroxy-4-((methylamino)methyl)cyclohexyl)-8-methylimidazo[1,5-a]pyrazin-1-yl)-2-methoxyphenyl)-4-methoxy-1-methyl-1H-indole-2-carboxamide]	≤ 10 nM
COc1cc(-c2nc(C3CCN(C(=O)CN(C)C)CC3)n3ccnc(C)c23)ccc1NC(=O)c1cc2ccccc2n1C [Example 19, N-(4-(3-(1-(2-(dimethylamino)acetyl)piperidin-4-yl)-8-methylimidazo[1,5-a]pyrazin-1-yl)-2-methoxyphenyl)-1-methyl-1H-indole-2-carboxamide]	≤ 10 nM
COc1cc(-c2nc([C@H]3CC[C@H](N4CCN(C)CC4)CC3)n3ccnc(C)c23)ccc1NC(=O)c1cc2cc(Cl)cnc2n1C [Example 67, 5-Chloro-N-(2-methoxy-4-(8-methyl-3-((trans)-4-(4-methylpiperazin-1-yl)cyclohexyl)imidazo[1,5-a]pyrazin-1-yl)phenyl)-1-methyl-1H-pyrrolo[2,3-b]pyridine-2-carboxamide]	≤ 10 nM
COc1cc(-c2nc(C3CC(=O)N(C)C3)n3ccnc(C)c23)ccc1NC(=O)c1cc2c(OC)cccc2n1C (stereo not shown) [Example 73, 4-Methoxy-N-(2-methoxy-4-(8-methyl-3-(1-methyl-5-oxopyrrolidin-3-yl)imidazo[1,5-a]pyrazin-1-yl)phenyl)-1-methyl-1H-indole-2-carboxamide]	≤ 10 nM
CCC[C@H](C)OC(=O)Nc1ccc(-c2nc([C@H]3CC[C@@H](N4CCN(C(C)=O)CC4)CC3)n3ccnc(C)c23)cc1OC [Example 26f, (S)-pentan-2-yl 4-(3-((cis)-4-(4-acetylpiperazin-1-yl)cyclohexyl)-8-methylimidazo[1,5-a]pyrazin-1-yl)-2-methoxyphenylcarbamate]	≤ 10 nM
COc1cc(-c2nc(CO)n3ccnc(C)c23)ccc1NC(=O)c1cc2c(OC)cccc2n1C [Example 14, N-(4-(3-(hydroxymethyl)-8-methylimidazo[1,5-a]pyrazin-1-yl)-2-methoxyphenyl)-4-methoxy-1-methyl-1H-indole-2-carboxamide]	10 to 100 nM
COc1cc(-c2nc(C3CCN(C(=O)CN)CC3)n3ccnc(C)c23)ccc1NC(=O)c1cc2ccccc2n1C [Example 20, N-(4-(3-(1-(2-Aminoacetyl)piperidin-4-yl)-8-methylimidazo[1,5-a]pyrazin-1-yl)-2-methoxyphenyl)-1-methyl-1H-indole-2-carboxamide]	≤ 10 nM

More lines, now with the values ahead:

IC50	Structure (SMILES)
≤ 10 nM	COc1cc(-c2nc([C@H]3CC[C@H](N4CCN(C)CC4)CC3)n3ccnc(C)c23)ccc1NC(=O)c1cc2c(OC)cccc2n1C [Example 7, 4-Methoxy-N-(2-methoxy-4-(8-methyl-3-((trans)-4-(4-methylpiperazin-1-yl)cyclohexyl)imidazo[1,5-a]pyrazin-1-yl)phenyl)-1-methyl-1H-indole-2-carboxamide]
10 to 100 nM	COc1cc(-c2nc([C@@H]3CCN(C4CCOCC4)C3)n3ccnc(C)c23)ccc1NC(=O)c1cc2c(OC)cccc2n1C [Example 35, (R)-4-methoxy-N-(2-methoxy-4-(8-methyl-3-(1-(tetrahydro-2H-pyran-4-yl)pyrrolidin-3-yl)imidazo[1,5-a]pyrazin-1-yl)phenyl)-1-methyl-1H-indole-2-carboxamide]
≤ 10 nM	COc1cc(-c2nc([C@H]3CC[C@H](N4CCOCC4)CC3)n3ccnc(C)c23)ccc1NC(=O)c1cc2ccccc2n1C [Example 12, N-(2-methoxy-4-(8-methyl-3-((trans)-4-morpholinocyclohexyl)imidazo[1,5-a]pyrazin-1-yl)phenyl)-1-methyl-1H-indole-2-carboxamide]
≤ 10 nM	COc1cc(-c2nc([C@H]3CC[C@@H](N4CCN(C)CC4)CC3)n3ccnc(C)c23)ccc1NC(=O)c1cc2c(OC)cccc2n1C [Example 8, 4-Methoxy-N-(2-methoxy-4-(8-methyl-3-((cis)-4-(4-methylpiperazin-1-yl)cyclohexyl)imidazo[1,5-a]pyrazin-1-yl)phenyl)-1-methyl-1H-indole-2-carboxamide]
≤ 10 nM	COc1cc(-c2nc(C3CCN(C4CCOCC4)CC3)n3ccnc(C)c23)ccc1NC(=O)c1cc2c(OC)cccc2n1C [Example 30, 4-Methoxy-N-(2-methoxy-4-(8-methyl-3-(1-(tetrahydro-2H-pyran-4-yl)piperidin-4-yl)imidazo[1,5-a]pyrazin-1-yl)phenyl)-1-methyl-1H-indole-2-carboxamide]
≤ 10 nM	COc1cc(-c2nc([C@H]3CC[C@H](N4CCN(C(C)=O)CC4)CC3)n3ccnc(C)c23)ccc1NC(=O)c1cc2c(OC)cccc2n1C [Example 2, N-(4-(3-((Trans)-4-(4-acetylpiperazin-1-yl)cyclohexyl)-8-methylimidazo[1,5-a]pyrazin-1-yl)-2-methoxyphenyl)-4-methoxy-1-methyl-1H-indole-2-carboxamide]
≤ 10 nM	COc1cc(-c2nc([C@H]3CC[C@H](N4CC(F)(F)C4)CC3)n3ccnc(C)c23)ccc1NC(=O)c1cc2c(OC)cccc2n1C [Example 9, N-(4-(3-((trans)-4-(3,3-difluoroazetidin-1-yl)cyclohexyl)-8-methylimidazo[1,5-a]pyrazin-1-yl)-2-methoxyphenyl)-4-methoxy-1-methyl-1H-indole-2-carboxamide]
≤ 10 nM	COc1cc(-c2nc([C@H]3CC[C@H](N)CC3)n3ccnc(C)c23)ccc1NC(=O)c1cc2c(OC)cccc2n1C [Example 39, N-(4-(3-((trans)-4-aminocyclohexyl)-8-methylimidazo[1,5-a]pyrazin-1-yl)-2-methoxyphenyl)-4-methoxy-1-methyl-1H-indole-2-carboxamide]
≤ 10 nM	COC(=O)N1CCC(c2nc(-c3ccc(NC(=O)c4cc5c(OC)cccc5n4C)c(OC)c3)c3c(C)nccn23)CC1 [Example 22, Methyl 4-(1-(3-methoxy-4-(4-methoxy-1-methyl-1H-indole-2-carboxamido)phenyl)-8-methylimidazo[1,5-a]pyrazin-3-yl)piperidine-1-carboxylate]
≤ 10 nM	COc1cc(-c2nc(C3CCN(C4CCN(C(C)=O)CC4)CC3)n3ccnc(C)c23)ccc1NC(=O)c1cc2c(OC)cccc2n1C [Example 49, N-(4-(3-(1′-acetyl-1,4′-bipiperidin-4-yl)-8-methylimidazo[1,5-a]pyrazin-1-yl)-2-methoxyphenyl)-4-methoxy-1-methyl-1H-indole-2-carboxamide]
≤ 10 nM	COc1cc(-c2nc([C@H]3CC[C@H](N4CCNCC4)CC3)n3ccnc(C)c23)ccc1NC(=O)c1cc2c(OC)cccc2n1C [Example 54, 4-Methoxy-N-(2-methoxy-4-(8-methyl-3-((trans)-4-(piperazin-1-yl)cyclohexyl)imidazo[1,5-a]pyrazin-1-yl)phenyl)-1-methyl-1H-indole-2-carboxamide]
